Data from the CheMixHub viscosity set.

Assay: xn = mol fraction of the nth substance listed

CCCCn1cc[n+](C)c1.F[P-](F)(F)(F)(F)F + Cc1ccccc1
Settings | viscosity [mPa·s]
310.65 K, 101 kPa, x1 = 0.8 | 31.65

CCc1ccccc1 + Cc1ccccc1
Settings | viscosity [mPa·s]
293.15 K, 101.33 kPa, x2 = 0.1809 | 0.652
293.15 K, 101.33 kPa, x2 = 0.3695 | 0.636
293.15 K, 101.33 kPa, x2 = 0.5187 | 0.623
293.15 K, 101.33 kPa, x2 = 0.6606 | 0.611
293.15 K, 101.33 kPa, x2 = 0.8474 | 0.597
298 K, 101 kPa, x2 = 0.1175 | 0.6248
298 K, 101 kPa, x2 = 0.2654 | 0.6174
298 K, 101 kPa, x2 = 0.4661 | 0.6001
298 K, 101 kPa, x2 = 0.5586 | 0.5944
298 K, 101 kPa, x2 = 0.6327 | 0.5864
298 K, 101 kPa, x2 = 0.8164 | 0.5675
298 K, 101 kPa, x2 = 0.9082 | 0.5576
298 K, 101 kPa, x2 = 0.9658 | 0.5598
298.15 K, 101.3 kPa, x2 = 0.1427 | 0.6196
298.15 K, 101.3 kPa, x2 = 0.2444 | 0.609
298.15 K, 101.3 kPa, x2 = 0.3777 | 0.5992
298.15 K, 101.3 kPa, x2 = 0.4928 | 0.5905
298.15 K, 101.3 kPa, x2 = 0.5425 | 0.5867
298.15 K, 101.3 kPa, x2 = 0.6355 | 0.5789
298.15 K, 101.3 kPa, x2 = 0.7353 | 0.5716
298.15 K, 101.3 kPa, x2 = 0.8573 | 0.5614
298.15 K, 101.3 kPa, x2 = 0.9453 | 0.5549
298.15 K, 101.33 kPa, x2 = 0.1308 | 0.623
298.15 K, 101.33 kPa, x2 = 0.2529 | 0.616
298.15 K, 101.33 kPa, x2 = 0.3685 | 0.604
298.15 K, 101.33 kPa, x2 = 0.4784 | 0.592
298.15 K, 101.33 kPa, x2 = 0.6663 | 0.58
298.15 K, 101.33 kPa, x2 = 0.8024 | 0.568
298.15 K, 101.33 kPa, x2 = 0.9209 | 0.56
303.15 K, 101.3 kPa, x2 = 0.0366 | 0.5902
303.15 K, 101.3 kPa, x2 = 0.1427 | 0.5808
303.15 K, 101.3 kPa, x2 = 0.2444 | 0.5729
303.15 K, 101.3 kPa, x2 = 0.3777 | 0.5639
303.15 K, 101.3 kPa, x2 = 0.4928 | 0.5556
303.15 K, 101.3 kPa, x2 = 0.5425 | 0.5522
303.15 K, 101.3 kPa, x2 = 0.6355 | 0.545
303.15 K, 101.3 kPa, x2 = 0.7353 | 0.5371
303.15 K, 101.3 kPa, x2 = 0.8573 | 0.528
303.15 K, 101.3 kPa, x2 = 0.9453 | 0.5223
303.15 K, 101.33 kPa, x2 = 0.1809 | 0.581
303.15 K, 101.33 kPa, x2 = 0.3695 | 0.565
303.15 K, 101.33 kPa, x2 = 0.5187 | 0.554
303.15 K, 101.33 kPa, x2 = 0.6606 | 0.546
303.15 K, 101.33 kPa, x2 = 0.8474 | 0.533
313.15 K, 101.33 kPa, x2 = 0.1809 | 0.52
313.15 K, 101.33 kPa, x2 = 0.3695 | 0.505
313.15 K, 101.33 kPa, x2 = 0.5187 | 0.496
313.15 K, 101.33 kPa, x2 = 0.6606 | 0.49
313.15 K, 101.33 kPa, x2 = 0.8474 | 0.479
323.15 K, 101.33 kPa, x2 = 0.1809 | 0.46
323.15 K, 101.33 kPa, x2 = 0.3695 | 0.459
323.15 K, 101.33 kPa, x2 = 0.5187 | 0.447
323.15 K, 101.33 kPa, x2 = 0.6606 | 0.443
323.15 K, 101.33 kPa, x2 = 0.8474 | 0.43

COC(C)(C)C + Cc1ccccc1
298.15 K, 101 kPa
Settings | viscosity [mPa·s]
x1 = 0.05 | 0.541
x1 = 0.1 | 0.528
x1 = 0.2001 | 0.505
x1 = 0.3002 | 0.479
x1 = 0.4001 | 0.458
x1 = 0.5001 | 0.438
x1 = 0.6001 | 0.419
x1 = 0.6998 | 0.398
x1 = 0.8 | 0.383
x1 = 0.8999 | 0.372
x1 = 0.9502 | 0.365

Clc1cccc2ccccc12 + Cc1ccccc1
viscosity [mPa·s], 101.33 kPa
Settings | x1 = 0.0995 | x1 = 0.1995 | x1 = 0.3037 | x1 = 0.3973 | x1 = 0.4962 | x1 = 0.597 | x1 = 0.6945 | x1 = 0.7972 | x1 = 0.8918
298.15 K | 0.596 | 0.711 | 0.838 | 0.979 | 1.16 | 1.357 | 1.614 | 1.941 | 2.321
303.15 K | 0.561 | 0.665 | 0.788 | 0.91 | 1.074 | 1.249 | 1.484 | 1.764 | 2.091
308.15 K | 0.529 | 0.626 | 0.727 | 0.849 | 0.995 | 1.153 | 1.361 | 1.616 | 1.88

Clc1ccccc1 + Cc1ccccc1C
101 kPa
Settings | viscosity [mPa·s]
293.15 K, x1 = 0.1217 | 0.755
293.15 K, x1 = 0.2237 | 0.76
293.15 K, x1 = 0.4305 | 0.759
293.15 K, x1 = 0.5325 | 0.753
293.15 K, x1 = 0.6305 | 0.76
293.15 K, x1 = 0.7288 | 0.755
293.15 K, x1 = 0.8295 | 0.756
293.15 K, x1 = 0.9051 | 0.75
298.15 K, x1 = 0.1005 | 0.712
298.15 K, x1 = 0.2307 | 0.708
298.15 K, x1 = 0.3108 | 0.704
298.15 K, x1 = 0.4337 | 0.706
298.15 K, x1 = 0.5454 | 0.705
298.15 K, x1 = 0.6079 | 0.705
298.15 K, x1 = 0.7762 | 0.706
298.15 K, x1 = 0.8807 | 0.705
303.15 K, x1 = 0.1214 | 0.66
303.15 K, x1 = 0.2389 | 0.666
303.15 K, x1 = 0.3117 | 0.653
303.15 K, x1 = 0.4128 | 0.657
303.15 K, x1 = 0.5674 | 0.653
303.15 K, x1 = 0.6882 | 0.661
303.15 K, x1 = 0.7891 | 0.661
303.15 K, x1 = 0.9156 | 0.66

COCCOCCOCCOCCOC + ClC(Cl)(Cl)Cl
298.15 K, 101 kPa
Settings | viscosity [mPa·s]
x1 = 0.0127 | 0.966
x1 = 0.0282 | 1.01
x1 = 0.0629 | 1.122
x1 = 0.1168 | 1.311
x1 = 0.1932 | 1.562
x1 = 0.2437 | 1.723
x1 = 0.2943 | 1.888
x1 = 0.3592 | 2.081
x1 = 0.3669 | 2.102
x1 = 0.4164 | 2.242
x1 = 0.4414 | 2.319
x1 = 0.511 | 2.487
x1 = 0.5854 | 2.656
x1 = 0.6215 | 2.732
x1 = 0.6944 | 2.874
x1 = 0.7318 | 2.94
x1 = 0.7968 | 3.067
x1 = 0.8566 | 3.16
x2 = 0.0114 | 3.287

CCCCn1cc[n+](C)c1.F[P-](F)(F)(F)(F)F + ClC(Cl)Cl
Settings | viscosity [mPa·s]
298.15 K, 101 kPa, x2 = 0.0857 | 195

COCCOCCOCCOCCOC + ClC(Cl)Cl
298.15 K, 101 kPa
Settings | viscosity [mPa·s]
x1 = 0.0305 | 0.671
x1 = 0.06 | 0.81
x1 = 0.0813 | 0.921
x1 = 0.118 | 1.124
x1 = 0.1876 | 1.492
x1 = 0.2354 | 1.766
x1 = 0.2657 | 1.91
x1 = 0.2957 | 2.04
x1 = 0.35 | 2.276
x1 = 0.4029 | 2.413
x1 = 0.4429 | 2.521
x1 = 0.5093 | 2.676
x1 = 0.5445 | 2.745
x1 = 0.6146 | 2.883
x1 = 0.6452 | 2.925
x1 = 0.7142 | 3.035
x1 = 0.7593 | 3.083
x1 = 0.8142 | 3.141
x1 = 0.88 | 3.227
x1 = 0.9225 | 3.252
